Measured values published in PMC7248098, “Biochemical characterization and inhibition of the alternative oxidase enzyme from the fungal phytopathogen Moniliophthora perniciosa” (Communications Biology, 2020).
Values joined by “and” are separate entries in the source; they are usually repeats but may differ in a detail not shown here. Identical values can stand only once.

What was measured:
[1] = tested on: membrane-bound TAO; set-up: method as in PMID 23180806; conditions: cited from earlier work
[2] = tested on: membrane-bound TAO; assay: Inhibition of membrane-bound TAO (literature); assay type: biochemical, Trypanosoma brucei; conditions: from literature IC50 values
[3] = target: T1, membrane-bound rMpAOX (Moniliophthora perniciosa, UniProt A8QJP8); assay: Dose-response assay of inhibitors with membrane-bound, GMP-activated rMpAOX (NADH oxidation); assay type: biochemical; conditions: for Fractional velocity, %: log[I]
T1 sequence (A8QJP8 entry or part of it): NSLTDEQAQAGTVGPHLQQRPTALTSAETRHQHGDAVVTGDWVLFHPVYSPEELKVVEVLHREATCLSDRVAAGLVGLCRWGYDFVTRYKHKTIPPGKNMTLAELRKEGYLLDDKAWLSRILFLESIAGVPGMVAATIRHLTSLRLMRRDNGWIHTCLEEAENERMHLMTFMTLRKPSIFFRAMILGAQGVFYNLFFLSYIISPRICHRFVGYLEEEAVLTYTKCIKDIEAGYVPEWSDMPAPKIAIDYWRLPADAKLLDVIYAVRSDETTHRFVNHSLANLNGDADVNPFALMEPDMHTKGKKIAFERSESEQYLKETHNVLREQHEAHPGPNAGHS
Method: (§1) E. coli membrane preparation was performed as described with minor modifications. […] The cells were disrupted using two passes at […] through a pre-cooled Constant cell disruption system (Constant Systems Ltd). The lysate was centrifuged for 15 min at 16,000 rcf, and the pelleted unbroken cells and large cell debris were discarded. The supernatant was centrifuged for 90 min at 200,000 rcf to collect the fragmented membranes.
(§2) Respiration rates were recorded before and after the addition of putative AOX activators, such as 5′-ADP, 5′-AMP, 5′-GDP, 5′-GMP, glyoxylate, oxaloacetate, pyruvate or succinate (1 mM each unless stated otherwise). […] Data were acquired with the Multiskan FC Microplate Photometer (ThermoFisher). […] Absorbance readings were taken periodically and a blank reactions (substrate without enzyme) were included in every assay and were used to determine and subtract the autoxidation rate (background). Proteoliposomes were assayed as described for the E. coli membrane fraction except that no KCN was included and 0.5 µL of the prep (~50 ng rMpAOX) were added into the reaction. When tested, inhibitors were preincubated with the enzyme in reaction buffer for 2–5 min before starting the reaction by the addition of substrate. The path length (i.e., the height of the reaction medium inside the well) was calculated based on the reaction volume and the well cross-section area informed by the supplier. GraphPad Prism 7.0 (GraphPad Software Inc.) was used for function fitting.

[4] = target: rMpAOX incorporated into proteoliposomes (Moniliophthora perniciosa, UniProt A8QJP8); assay: rMpAOX incorporated into proteoliposomes with Q10 and NDH-2 (NADH oxidation); assay type: biochemical; conditions: for Km / VMax: substrate ubiquinol-10 in proteoliposomes, ~50 ng rMpAOX, 300 µM NADH
Chain of rMpAOX incorporated into proteoliposomes (A8QJP8 entry or part of it): as above
Method: Proteoliposomes (PL) were prepared as previously described[44],[45], except that NDH-2 was used instead of complex I and 0.5% DDM was used instead of OG. […] For kinetic studies, PLs were prepared with 50 µg rMpAOX and no NDH-2—in this case, pure NDH-2 was added directly into the enzymatic reaction mixture at a saturating concentration. Briefly, lipids and Q10 stocks in chloroform were mixed in a glass vial and the chloroform dried under a nitrogen stream. The lipids were hydrated and extruded through a 100 nm NanoSizer MINI Liposome Extruder (T&T Scientific) followed by the addition of protein. After treatment with the Bio-Beads SM-2 Resin (Bio-Rad), proteolipososmes were harvested by ultracentrifugation and resuspended in 150 µL of buffer. Enzymatic assays were performed on the same day.
as §2

[5] = target: T1, membrane-bound rMpAOX; assay: Membrane-bound rMpAOX activity with putative activators (O2 uptake, oxygraph; dose-response); assay type: biochemical;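 for Fractional velocity, %: 100% is the maximal rate reached in the activator titration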
Method: as §1, §2

[6] = target: purified rMpAOX (Moniliophthora perniciosa, UniProt A8QJP8); assay: Purified (detergent-solubilised) rMpAOX, Q1H2 oxidation; assay type: biochemical; conditions: GMP up to 0.5 mM, purified rMpAOX
Chain of purified rMpAOX (A8QJP8 entry or part of it): as above
Method: The E. coli membrane fraction was resuspended with 50 mM Tris-HCl pH 7.5, 20% glycerol, 200 mM MgSO4 and 1% Fos-Choline-12 (FC-12) instead of MOPS buffer. The sample was left under gentle rocking for 1 h at 4 °C, after which it was centrifuged at 200,000 rcf for 30 min. […] T. Elthon, Nebraska, USA. Protein content was estimated through the Bradford method[63] and bovine serum albumin as standard.
as §2

[7] = tested on: WBD (witches' broom disease of cocoa, M. perniciosa); set-up: method as in PMID 30350447; conditions: 200 µM, in the absence of a main respiration inhibitor; cited from earlier work

In the case of `CC(/C=C/[C@@]1(C)[C@H](C)CCC(=O)[C@@H]1C)=C\Cc1c(O)c(Cl)c(C)c(C=O)c1O` [AC, ascochlorin], the IC50 [1] is given as 1.5 nM, the “Ratio of AC IC50 to CB IC50 (TAO)” value [2] is given as 7.5 and the IC50 [3] is given as 5.25 µM. For the same compound, the “Fractional velocity, %” value ([3]; M -5.60206 (Fig2b), 2.5 µM) was 73.3239% and 61.6121%, the “Fractional velocity, %” value ([3]; M -6.60206 (Fig2b), 0.25 µM) was 96.489% and 80.5494% and the “Fractional velocity, %” value ([3]; M -7.60206 (Fig2b), 0.025 µM) was 98.3896% and 89.3939%. For the same compound, the “Fractional velocity, %” value ([3]; M -8.60206 (Fig2b), 0.0025 µM) was 99.2565% and 89.0077%, the “Fractional velocity, %” value ([3]; M -9.60206 (Fig2b), 0.00025 µM) was 97.0686% and 90.2842% and the “Fractional velocity, %” value ([3]; M -10.6021 (Fig2b), 25 pM) was 95.0559% and 89.2874%. It also gave an activity at 2.5 µM ([3]; read-out: Fractional velocity, %, log[I], M -5.60206 (Fig2b)) of 60.8%, an activity at 0.25 µM ([3]; read-out: Fractional velocity, %, log[I], M -6.60206 (Fig2b)) of 92.8% and an activity at 0.025 µM ([3]; read-out: Fractional velocity, %, log[I], M -7.60206 (Fig2b)) of 98.2%. It also gave an activity at 0.0025 µM ([3]; read-out: Fractional velocity, %, log[I], M -8.60206 (Fig2b)) of 97.9%, an activity at 0.00025 µM ([3]; read-out: Fractional velocity, %, log[I], M -9.60206 (Fig2b)) of 95.5% and an activity at 25 pM ([3]; read-out: Fractional velocity, %, log[I], M -10.6021 (Fig2b)) of 93.4%.
In the case of `Nc1nc2c(ncn2[C@@H]2O[C@H](COP(=O)(O)O)[C@@H](O)[C@H]2O)c(=O)[nH]1` [GMP, 5′-GMP], the “Sensitivity of rMpAOX to GMP” value ([4]; PL system) is reported as “not regained”, the “Maximum membrane-bound rMpAOX oxygen uptake” value ([5]; 1 mM GMP) is reported as 0.67 µmol O2 min^−1 mg total protein^−1 and the “Maximum membrane-bound rMpAOX oxygen uptake per mg AOX” value ([5]; 1 mM GMP) is reported as 5 µmol O2 min^−1 mg AOX^−1. For the same compound, the “Increase of membrane-bound rMpAOX oxygen uptake” value ([5]; 1 mM activator) was 9.8 times, the “Fold-change in membrane-bound rMpAOX O2 uptake” value ([5]; 1 mM each, single independent measurements (Fig1a)) was 8.8788 and 10.5259 and 10.0722 and the “Fractional velocity, %” value ([5]; [activator] 0.025 mM (Fig1b)) was 56.6% and 57.7%. For the same compound, the “Fractional velocity, %” value ([5]; [activator] 0.075 mM (Fig1b)) was 100.5% and 91.4%, the “Fractional velocity, %” value ([5]; [activator] 0.175 mM (Fig1b)) was 125.1% and 121.5% and the “Fractional velocity, %” value ([5]; [activator] 0.375 mM (Fig1b)) was 153.9% and 143.6%. The “Fractional velocity, %” value ([5]; [activator] 0.625 mM (Fig1b)) was 166.3% and 158.4%, the “Fractional velocity, %” value ([5]; [activator] 1.125 mM (Fig1b)) was 182.1% and 175.1% and the “Fractional velocity, %” value ([5]; [activator] 2.125 mM (Fig1b)) was 186.8% and 187.9%. For the same compound, the “Fractional velocity, %” value ([5]; [activator] 4.125 mM (Fig1b)) was 193.5% and 196.9%, the “Fractional velocity, %” value ([5]; [activator] 6.625 mM (Fig1b)) was 206.9% and 200.9% and the EC50 ([5]; membrane-bound rMpAOX, 4-parameter sigmoid fit, read-out: EC50 of rMpAOX activation) was 166 µM. The “Effect on rMpAOX kinetic parameters KM and VMax” value [6] was “did not alter”.
For `O=C(Nc1cccc(Br)c1)c1cccc(F)c1` [N-(3-bromophenyl)-3-fluorobenzamide], the “Effect in plants against WBD” value [7] is listed as “protective effect”.
Work on `COc1c(O)c(C)c(C/C=C(\C)CC/C=C(\C)CC/C=C(\C)CC/C=C(\C)CC/C=C(\C)CC/C=C(\C)CC/C=C(\C)CC/C=C(\C)CC/C=C(\C)CCC=C(C)C)c(O)c1OC` [Q10H2, ubiquinol-10] yielded a rMpAOX catalytic rate ([4]; 180 µM Q10H2 in the phospholipid membrane, calculated from KM and VMax) of 9.3 µmol/min/mg, a Km [4] of 960 ± 760 µM and a VMax [4] of 59.4 ± 6.6 µmol Q10 min^−1 mg^−1.
For `COC1=C(OC)C(=O)C(C/C=C(\C)CC/C=C(\C)CC/C=C(\C)CC/C=C(\C)CC/C=C(\C)CC/C=C(\C)CC/C=C(\C)CC/C=C(\C)CC/C=C(\C)CCC=C(C)C)=C(C)C1=O` [Q10], the Km [4] was 960 ± 760 µM and the VMax [4] was 59.4 µmol Q10 min^−1 mg^−1 and 59.4 ± 6.6 µmol Q10 min^−1 mg^−1.
